This test deals with Influenza B virus. Kind of test: Antiviral activity against Influenza virus […] B/Panama/45/1990 infected in MDCK cells at 0.001 MOI assessed as inhibition of virus cytopathic effect measured after 48 hrs by crystal violet staining based assay. In kind it is functional, organism-based. Conditions: B/Panama/45/1990, MDCK.
As for `COc1cc(/C=C/C(=O)CC(=O)/C=C/c2ccc(O)c(OC)c2)ccc1O` [CURCUMIN], the EC50 was determined as 0.47 µM.

`O=C(O[C@@H]1Cc2c(O)cc(O)cc2O[C@@H]1c1cc(O)c(O)c(O)c1)c1cc(O)c(O)c(O)c1` [EPIGALOCATECHIN GALLATE]: the EC50 worked out at 5.7 µM.

As for `O=C(O[C@@H]1Cc2c(O)cc(O)cc2O[C@@H]1c1ccc(O)c(O)c1)c1cc(O)c(O)c(O)c1` [EPICATECHIN GALLATE], the concentration giving a half-maximal response (EC50) worked out at 22 µM.

The values are drawn from ChEMBL document CHEMBL6134807, “A review-plant medicine and its extraction components inhibit influenza virus” (Bioorg Med Chem Lett, 2025).
